Measured values published in patent US12492196B2, “Thienyloxazolones and analogues” (Bayer Aktiengesellschaft, priority 2019, dated 2025).
Marks after values point to notes of the source that are not given here.

What was measured:
[1] = tested on: Xanthomonas campestris pv. campestris; experiment: In vivo preventive test on Xanthomonas campestris pv. campestris (black rot on cabbage); conditions: for pest or weed control at 31 ppm / pest or weed control at 125 ppm: Xanthomonas campestris, cabbage, evaluated 8 or 10 days after inoculation, read-out: efficacy; for pest or weed control at 31 ppm: 31 ppm of active ingredient; for pest or weed control at 125 ppm: 125 ppm of active ingredient
Method: (§1) The tested active ingredients were prepared by homogenization in a mixture of acetone/Dimethyl sulfoxide/Tween®, and then diluted with water to obtain the desired active material concentration.
(§2) The young plants of cabbage were treated by spraying the active ingredient prepared as described above. Control plants were treated only with an aqueous solution of acetone/Dimethyl sulfoxide/Tween®.
After 72 hours, the plants were contaminated by spraying the leaves with an aqueous bacteria suspension of Xanthomonas campestris pv. campestris. The contaminated cabbage plants were incubated for 8 or 10 days at 27° C. at 95% relative humidity.
The test was evaluated 8 or 10 days after the inoculation. 0% means an efficacy which corresponds to that of the control plants while an efficacy of 100% means that no disease was observed.
Compound CMP1 was tested in an in vivo preventive test on Xanthomonas campestris pv. campestris (black rot on cabbage) in the same conditions as described in Example F.

[2] = tested on: Uromyces appendiculatus; experiment: In vivo preventive test on Uromyces appendiculatus (bean rust); conditions: for pest or weed control at 500 ppm / pest or weed control at 31 ppm / pest or weed control at 125 ppm: Uromyces appendiculatus, 240 h, bean, evaluated 10 days after inoculation, read-out: efficacy; for pest or weed control at 500 ppm: 500 ppm of active ingredient; for pest or weed control at 31 ppm: 31 ppm of active ingredient; for pest or weed control at 125 ppm: 125 ppm of active ingredient
Method: as §1
The young plants of bean were treated by spraying the active ingredient prepared as described above.
Control plants were treated only with an aqueous solution of acetone/Dimethyl sulfoxide/Tween®.
After 72 hours, the plants were contaminated by spraying the leaves with an aqueous suspension of Uromyces appendiculatus spores. The contaminated bean plants were incubated for 24 hours at 20° C. and at 100% relative humidity and then for 9 days at 20° C. and at 70-80% relative humidity.
The test was evaluated 10 days after the inoculation. 0% means an efficacy which corresponds to that of the control plants while an efficacy of 100% means that no disease was observed.
Compound CMP1 was tested in an in vivo preventive test on Uromyces appendiculatus (bean rust) in the same conditions as described in Example G.

[3] = tested on: Colletotrichum lindemuthianum; experiment: In vivo preventive test on Colletotrichum lindemuthianum (Antrachnose on bean); conditions: for pest or weed control at 500 ppm / pest or weed control at 31 ppm: Colletotrichum lindemuthianum, 144 h, bean, evaluated 6 days after inoculation, read-out: efficacy; for pest or weed control at 500 ppm: 500 ppm of active ingredient; for pest or weed control at 31 ppm: 31 ppm of active ingredient
Method: The tested active ingredients were prepared by homogenization in a mixture of acetone/Dimethyl sulfoxide/Tween®, and then diluted with water to obtain the desired active material concentration. The young plants of bean were treated by spraying the active ingredient prepared as described above. Control plants were treated only with an aqueous solution of acetone/Dimethyl sulfoxide/Tween®.
After 72 hours, the plants were contaminated by spraying the leaves with an aqueous suspension of Colletotrichum lindemuthianum spores. The contaminated bean plants were incubated for 24 hours at 20° C. and at 100% relative humidity and then for 5 days at 20° C. and at 90% relative humidity.
The test was evaluated 6 days after the inoculation. 0% means an efficacy which corresponds to that of the control plants while an efficacy of 100% means that no disease was observed.
Compound CMP1 was tested in an in vivo preventive test on Colletotrichum lindemuthianum (Antrachnose on bean) in the same conditions as described in Example D.

[4] = tested on: Peronospora parasitica; experiment: In vivo preventive test on Peronospora parasitica (crucifer downy mildew); conditions: Hyaloperonospora parasitica, 120 h; 125 ppm of active ingredient; cabbage; evaluated 5 days after inoculation; read-out: efficacy
Method: as §1, §2
After 72 hours, the plants were contaminated by spraying the leaves with an aqueous suspension of Peronospora parasitica spores. The contaminated cabbage plants were incubated for 5 days at 20° C. and at 100% relative humidity.
The test was evaluated 5 days after the inoculation. 0% means an efficacy which corresponds to that of the control plants while an efficacy of 100% means that no disease was observed.

[5] = Log P by HPLC on reversed phase columns (EEC directive 79/831 Annex V.A8); format: physicochemical; conditions: reversed phase HPLC columns, method [a]: LC-UV, acidic range, 0.1% formic acid in water and acetonitrile as eluent
Method: In the above table, measurement of Log P values was performed according to EEC directive 79/831 Annex V.A8 by HPLC (High Performance Liquid Chromatography) on reversed phase columns with the following methods: • [^a] Log P value is determined by measurement of LC-UV, in an acidic range, with 0.1% formic acid in water and acetonitrile as eluent (linear gradient from 10% acetonitrile to 95% acetonitrile). • [^b] Log P value is determined by measurement of LC-UV, in a neutral range, with 0.001 molar ammonium acetate solution in water and acetonitrile as eluent (linear gradient from 10% acetonitrile to 95% acetonitrile). • [^c] Log P value is determined by measurement of LC-UV, in an acidic range, with 0.1% phosphoric acid and acetonitrile as eluent (linear gradient from 10% acetonitrile to 95% acetonitrile).
If more than one Log P value is available within the same method, all the values are given and separated by “+”.
Calibration was done with straight-chain alkan2-ones (with 3 to 16 carbon atoms) with known Log P values (measurement of Log P values using retention times with linear interpolation between successive alkanones). Lambda-max-values were determined using UV-spectra from 200 nm to 400 nm and the peak values of the chromatographic signals.

[6] = tested on: Colletotrichum lindemuthianum; experiment: Colletotrichum lindemuthianum in vitro cell test; format: cell-based; conditions: 144 h, 20 ppm of active ingredient, 6 days incubation, read-out: efficacy (direct activity, inhibition of fungal growth)
Method: Solvent: DMSO Culture medium: 14.6 g anhydrous D-glucose (VWR), 7.1 g Mycological Peptone (Oxoid), 1.4 g granulated Yeast Extract (Merck), QSP 1 liter Inoculum: spores suspension Fungicides were solubilized in DMSO and the solution used to prepare the required range of concentrations. The final concentration of DMSO used in the assay was ≤1%. A spore suspension of C. lindemuthianum was prepared and diluted to the desired spore density. Fungicides were evaluated for their ability to inhibit spores germination and mycelium growth in liquid culture assay. The compounds were added in the desired concentration to the culture medium with spores. After 6 days incubation, fungi-toxicity of compounds was determined by spectrometric measurement of mycelium growth. Inhibition of fungal growth was determined by comparing the absorbance values in wells containing the fungicides with the absorbance in control wells without fungicides.

[7] = tested on: Xanthomonas campestris pv. campestris; experiment: Xanthomonas campestris pv. campestris in vitro cell test; format: cell-based; conditions: 20 ppm of active ingredient, 24 h incubation, read-out: efficacy (direct activity, inhibition of bacteria growth)
Method: Solvent: DMSO Culture medium: LB broth medium (Luria Broth Miller) Sigma Inoculum: bacteria suspension Compounds were solubilized in DMSO and the solution used to prepare the required range of concentrations. The final concentration of DMSO used in the assay was ≤1%. Inoculum was prepared from a pre-culture of bacteria grown in liquid medium and diluted to the desired optical density (OD). Compounds were evaluated for their ability to inhibit bacteria growth in liquid culture assay. The compounds were added in the desired concentrations to culture medium containing the bacteria suspension. After 24 h of incubation, the efficacy of compounds was determined by spectrometric measurement of bacteria growth. Inhibition was determined by comparing the absorbance values in wells containing the compounds with the absorbance in control wells without active ingredients.

[8] = tested on: salicylate responsive promoter sequence of the PR1 (pathogenesis-related protein I) gene (AT2G14610); experiment: Induction of defense gene expression in Arabidopsis thaliana (PR1 promoter-GFP reporter plants); format: in vivo; conditions: 72 h, 75 ppm of compound, 3rd day after spraying, mock treated leaves set as 1.00, read-out: relative fluorescence value
Method: Arabidopsis thaliana reporter plants containing the coding sequence of a green fluorescent protein (GFP) linked to the salicylate responsive promoter sequence of the PR1 (pathogenesis-related protein I) gene (AT2G14610) were grown for five days and then sprayed with compounds. On the 3rd day after spraying, plant fluorescence was assessed with a MacroFluo instrument from Leica Microsystems (Wetzlar, Germany). Fluorescences were quantified with the Meta-Morph Microscopy Automation & Image Analysis Software (Molecular Devices, Sunnyvale, Calif., United States).
Background fluorescence in mock treated leaves was set as 1.00.

| chromatographic logP [5] | Compound | pest or weed control at 31 ppm [1] | pest or weed control at 500 ppm [2] | pest or weed control at 500 ppm [3] | pest or weed control at 125 ppm [4] | Efficacy (%) at 31 ppm ([1]; 31 ppm, arithmetic mean of 4 tests, conditions of Example F) | Efficacy (%) at 125 ppm ([1]; 125 ppm, arithmetic mean of 4 tests, conditions of Example F) | pest or weed control at 125 ppm [1] | Efficacy (%) at 31 ppm ([2]; 31 ppm, arithmetic mean of 3 tests, conditions of Example G) | Efficacy (%) at 125 ppm ([2]; 125 ppm, arithmetic mean of 3 tests, conditions of Example G) | pest or weed control at 31 ppm [2] | pest or weed control at 125 ppm [2] | Efficacy (%) at 31 ppm ([3]; 31 ppm, conditions of Example D) | pest or weed control at 31 ppm [3] | inhibition at 20 ppm [6] | inhibition at 20 ppm [7] | fold induction at 75 ppm [8] |
| --- | --- | --- | --- | --- | --- | --- | --- | --- | --- | --- | --- | --- | --- | --- | --- | --- | --- |
| 4.47 | O=C1OC(c2sc(Cl)c(Br)c2Cl)=NC12CCC2 [I.25] | – | – | – | – | – | – | – | – | – | 90 to 100% | 90 to 100% | – | 70 to 79% | ≤ 30% | ≤ 30% | – |
| 4.39 | Cc1c(C2=NC3(CC3)C(=O)O2)sc(Cl)c1Br [I.11] | 70 to 79% | 90 to 100% | 90 to 100% | 90 to 100% | – | – | 90 to 100% | – | – | 80 to 89% | 90 to 100% | – | – | ≤ 30% | ≤ 30% | > 2 |

The remaining lines, values behind:

| Compound | chromatographic logP [5] | pest or weed control at 31 ppm [1] | pest or weed control at 500 ppm [2] | pest or weed control at 500 ppm [3] | pest or weed control at 125 ppm [4] | Efficacy (%) at 31 ppm ([1]; 31 ppm, arithmetic mean of 4 tests, conditions of Example F) | Efficacy (%) at 125 ppm ([1]; 125 ppm, arithmetic mean of 4 tests, conditions of Example F) | pest or weed control at 125 ppm [1] | Efficacy (%) at 31 ppm ([2]; 31 ppm, arithmetic mean of 3 tests, conditions of Example G) | Efficacy (%) at 125 ppm ([2]; 125 ppm, arithmetic mean of 3 tests, conditions of Example G) | pest or weed control at 31 ppm [2] | pest or weed control at 125 ppm [2] | Efficacy (%) at 31 ppm ([3]; 31 ppm, conditions of Example D) | pest or weed control at 31 ppm [3] | inhibition at 20 ppm [6] | inhibition at 20 ppm [7] | fold induction at 75 ppm [8] |
| --- | --- | --- | --- | --- | --- | --- | --- | --- | --- | --- | --- | --- | --- | --- | --- | --- | --- |
| O=C1OC(c2cc(Br)c(C(F)(F)F)s2)=NC12CC2 [I.26] | 3.98 | 70 to 79% | 90 to 100% | 70 to 79% | 90 to 100% | – | – | – | – | – | – | – | – | – | – | – | – |
| O=C1OC(c2cc(Br)c(Br)s2)=NC12CC2 [CMP1, reference compound] | – | < 40% | – | – | – | 35* % | 37* % | < 40% | 32* % | 42* % | < 40% | 42% | 19% | < 20% | – | – | – |
| O=C1OC(c2sc(Br)c(Br)c2F)=NC12CCC2 [I.13] | 4.02 | 90 to 100% | 90 to 100% | 90 to 100% | 90 to 100% | – | – | 80 to 89% | – | – | – | 90 to 100% | – | – | ≤ 30% | ≤ 30% | – |
